In patent publication US7160889B2, “Quinazoline compounds” (AstraZeneca AB, priority 2000, dated 2007):

Molecular target: T1, KDR receptor (Homo sapiens, UniProt P35968)
T1 construct: made in house; host or cells: insect cells (e.g. Spodoptera frugiperda Sf21, baculovirus)
Experiment: In vitro receptor tyrosine kinase inhibition test (a), KDR receptor
Format: biochemical
Details: using the KDR receptor
Text: (a) In vitro Receptor Tyrosine Kinase Inhibition Test
This assay determines the ability of a test compound to inhibit tyrosine kinase activity. DNA encoding VEGF, FGF or EGF receptor cytoplasmic domains may be obtained by total gene synthesis (Edwards M, International Biotechnology Lab 5(3), 19–25, 1987) or by cloning. These may then be expressed in a suitable expression system to obtain polypeptide with tyrosine kinase activity. […] In the case of the VEGF receptor Flt (Genbank accession number X51602), a 7 kb DNA fragment encoding most of the cytoplasmic domain, commencing with methionine 783 and including the termination codon, described by Shibuya et al (Oncogene, 1990, 5: 519–524), was isolated from cDNA and cloned into a baculovirus transplacement vector (for example pAcYM1 (see The Baculovirus Expression System: A Laboratory Guide, L. A. King and R. D. Possee, Chapman and Hall, 1992) or pAc360 or pBlueBacHis (available from Invitrogen Corporation)). This recombinant construct was co-transfected into insect cells (for example Spodoptera frugiperda 21(Sf21)) with viral DNA (eg Pharmingen BaculoGold) to prepare recombinant baculovirus. […]

T1 sequence (P35968 786-1356 limits assumed): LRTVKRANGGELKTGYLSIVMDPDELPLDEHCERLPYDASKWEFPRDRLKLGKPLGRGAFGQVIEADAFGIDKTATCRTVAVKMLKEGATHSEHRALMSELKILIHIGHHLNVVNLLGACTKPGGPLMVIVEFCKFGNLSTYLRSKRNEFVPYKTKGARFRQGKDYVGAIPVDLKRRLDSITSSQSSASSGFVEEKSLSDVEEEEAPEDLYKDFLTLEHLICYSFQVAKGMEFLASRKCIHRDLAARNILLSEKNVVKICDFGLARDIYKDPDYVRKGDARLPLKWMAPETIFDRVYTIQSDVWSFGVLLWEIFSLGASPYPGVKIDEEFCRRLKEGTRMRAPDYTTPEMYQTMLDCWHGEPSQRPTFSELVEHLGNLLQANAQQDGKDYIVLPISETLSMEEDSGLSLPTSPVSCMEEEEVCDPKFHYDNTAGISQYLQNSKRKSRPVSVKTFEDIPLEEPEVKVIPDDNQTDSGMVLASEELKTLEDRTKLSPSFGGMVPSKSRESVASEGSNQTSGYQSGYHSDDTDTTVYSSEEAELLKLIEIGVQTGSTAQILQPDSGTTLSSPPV

- IC50: 15 to 50 nM
SMILES: COc1cc2c(Nc3ccc(Br)cc3F)ncnc2cc1OCC(O)CN1CCN(C)CC1 (stereo not shown) [Example 1]
